Test [1] has as its system Hepatic Disorder Rat Model. Nature of the test: Administration test using hepatic disorder rat model (D-galactosamine), oral peptide (Test Example 2). To be noted: peptide 40 mg/kg orally, Wistar rats; for GOT: blood GOT level 24 hours after D-galactosamine 800 mg/kg i.p., water control 2180; for GPT: blood GPT level 24 hours after D-galactosamine 800 mg/kg i.p., water control 391. The test is classed as in vivo. As to the method: (§1) Wistar rats (4- to 5-week old) were used for the experiment. Rats were preliminarily fed for a week with purified standard feeds and subjected to fasting for 4 hours. pyroGlu-Leu obtained in Production Example 2 and pyroGlu-Ile obtained in Production Example 3 were each dissolved in water at 10 mg/l ml, and the resulting solutions were administered intraperitoneally in amounts of 20 mg/kg each. D-galactosamine (Sigma) was administered intraperitoneally in an amount of 800 mg/kg 1 hour later. Rats were allowed to freely eat 4 hours after D-galactosamine administration. Each group consisted of 5 rats, and water was administered to the control group instead of the peptide of the present invention.
(§2) Blood was sampled from the rats 24 hours after D-galactosamine administration, and GOT and GPT levels in the blood were assayed to compare the degrees of hepatic disorders.
(§3) GOT and GPT levels were assayed in accordance with the JSCC standardization method (Hiroshi Miura, Japanese Journal of Clinical Medicine (Nippon Rinsho), 53-reprinted-266, 1995).
The test was carried out in the same manner as in Test Example 1. pyroGlu-Gln-Gln, pyroGlu-Gln, pyroGlu-Leu, or pyroGlu-Ile obtained in Production Example 5 was dissolved in water at 10 mg/l ml, and the resulting solution was administered orally to rats in amounts of 40 mg/kg.

In test [2] the test system is Hepatic Disorder Rat Model. In words: Administration test using hepatic disorder rat model (D-galactosamine), intraperitoneal peptide (Test Example 1). The test is classed as in vivo. To be noted: peptide 20 mg/kg intraperitoneally 1 hour before, Wistar rats; for GOT: blood GOT level 24 hours after D-galactosamine 800 mg/kg i.p., water control 391; for GPT: blood GPT level 24 hours after D-galactosamine 800 mg/kg i.p., water control 50. Here is the method: as §1, §2, §3

Square brackets hold non-standard residues; d marks the D form. Ends that are not written are not given here. pGlu = O=C1CC[C@@H](C(=O)O)N1

For the substance [pGlu]-Gln, in test [1], the GOT is on record as 509 IU/L and the GPT stood at 124 IU/L.
In test [2], [pGlu]-Leu came in with a GOT of 215 IU/L and a GPT of 30 IU/L. In test [1], the GOT is on record as 555 IU/L and the GPT is listed as 131 IU/L.
On the same counts, the results for [pGlu]-Ile are 314 IU/L, 45 IU/L, 491 IU/L and 98 IU/L.
In test [1], [pGlu]-Gln-Gln showed a GOT of 524 IU/L and a GPT of 100 IU/L.

The values are drawn from patent publication US20100190723A1, “PREVENTIVE OR THERAPEUTIC COMPOSITION FOR LIVER DISEASE” (priority 2007, published 2010).
